Results from patent US20040259833A1 (priority 1999, published 2004).
Read-outs that look alike come from different tables or passages of the source.

What was measured:
Bacillus subtilis = assay: microbe, parasite or virus in culture; type: cell-based
Caulobacter cresentus = assay: microbe, parasite or virus in culture; type: cell-based
Helicobacter pylori = type: cell-based; settings: read-out: IC50, cell growth inhibition
[1] = tested on: Agrobacterium tumefaciens; type: cell-based; settings: read-out: IC50, cell growth inhibition
[2] = target: dcm methyltransferase (HhaI) (Haemophilus parahaemolyticus, UniProt P05102); type: biochemical, Hemophilus hemolyticus; settings: at 500 μM
dam methylase (E. coli) = dam methylase (E. coli) (Escherichia coli, UniProt P0AEE8); type: biochemical; settings: at 100 μM
[3] = tested on: bacterial cells expressing an adenine DNA methyltransferase; type: cell-based
[4] = target: adenine DNA methyltransferase (Caulobacter vibrioides (Caulobacter crescentus), UniProt P0CAW2); type: biochemical
[5] = Bacillus subtilis, read-out: IC50, Bacillus subtilis
[6] = Caulobacter, read-out: IC50, Caulobacter cresentus
[7] = read-out: IC50, cell growth inhibition

dam methylase (E. coli), sequence (P0AEE8 whole entry): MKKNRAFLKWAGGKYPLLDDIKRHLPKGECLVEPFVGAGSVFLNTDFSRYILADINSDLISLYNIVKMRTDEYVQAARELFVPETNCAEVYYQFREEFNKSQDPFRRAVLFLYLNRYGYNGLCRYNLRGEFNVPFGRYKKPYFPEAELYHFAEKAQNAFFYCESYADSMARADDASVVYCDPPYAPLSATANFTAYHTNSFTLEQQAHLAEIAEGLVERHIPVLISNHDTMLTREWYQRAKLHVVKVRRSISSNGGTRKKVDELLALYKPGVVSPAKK
dcm methyltransferase (HhaI), sequence (P05102 whole entry): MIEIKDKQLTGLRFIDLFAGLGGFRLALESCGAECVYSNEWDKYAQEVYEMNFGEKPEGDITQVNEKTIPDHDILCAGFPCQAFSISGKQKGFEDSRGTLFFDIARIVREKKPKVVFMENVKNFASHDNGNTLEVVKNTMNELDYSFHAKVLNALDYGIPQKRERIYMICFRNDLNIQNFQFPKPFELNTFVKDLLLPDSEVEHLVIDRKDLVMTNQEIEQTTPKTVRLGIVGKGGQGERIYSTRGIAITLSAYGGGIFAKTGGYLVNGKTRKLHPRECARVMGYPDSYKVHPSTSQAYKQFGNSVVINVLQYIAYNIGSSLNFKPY
adenine DNA methyltransferase, sequence (P0CAW2 whole entry): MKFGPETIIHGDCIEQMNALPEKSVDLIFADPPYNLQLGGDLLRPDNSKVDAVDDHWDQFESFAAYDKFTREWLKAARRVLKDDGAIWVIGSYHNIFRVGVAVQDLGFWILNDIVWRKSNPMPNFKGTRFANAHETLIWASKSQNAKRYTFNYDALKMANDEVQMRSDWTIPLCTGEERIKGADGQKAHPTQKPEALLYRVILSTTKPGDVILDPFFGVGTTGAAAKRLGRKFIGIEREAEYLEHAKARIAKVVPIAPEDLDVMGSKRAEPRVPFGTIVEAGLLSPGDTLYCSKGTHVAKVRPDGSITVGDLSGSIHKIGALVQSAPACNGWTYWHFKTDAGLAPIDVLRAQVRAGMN

Molecule	IC50 (Bacillus subtilis; [5])	IC50 (Caulobacter cresentus; [6])	IC50 (Bacillus subtilis; [7])	IC50 (Helicobacter pylori)	IC50 [1]	inhibition of dcm methyltransferase (HhaI) [2]	inhibition of dam methylase (E. coli) (dam methylase (E. coli))	IC50 (Caulobacter cresentus; [7])	also measured
Clc1ccc([B-]2(c3ccc(Cl)cc3)[NH2+]CCO2)cc1 [(5), di-(p-chlorophenyl)borinic acid ethanolamine ester]	32 µM	17 µM	–	–	–	–	–	–	–
6-N-(diphenylborinic ester)-ethyl-9-(3-(N-phthaloyl)-aminopropyl)-adenine [Compound 3c]	–	–	1 to 10 µM	25 to 100 µM	25 µM	No inhibition at all	Complete inhibition	< 25 µM	–
c1ccc([B-]2(c3ccccc3)Oc3cccc4ccc[n+]2c34)cc1 [(3), diphenylborinic acid 8-hydroxyquiniline ester]	–	> 100 µM	–	–	–	–	–	–	–
Fc1ccc([B-]2(c3ccc(F)cc3)Oc3cccc4ccc[n+]2c34)cc1 [(1), di-(p-fluorophenyl)borinic acid 8-hydroxyquiniline ester]	14 µM	23 µM	–	–	–	–	–	–	–
Fc1ccc([B-]2(c3ccc(F)cc3)[NH2+]CCO2)cc1 [(4), di-(p-fluorophenyl)borinic acid ethanolamine ester]	34 µM	85 µM	–	–	–	–	–	–	–
6-N-(diphenylborinic ester)-ethyl-adenine [Compound 3a]	–	–	10 to 50 µM	< 25 µM	> 100 µM	No inhibition at all	Complete inhibition	< 25 µM	–
c1ccc(B(OCCNc2ncnc3[nH]cnc23)c2ccccc2)cc1	–	–	–	–	–	–	–	–	concentration that inhibits cell growth [3]: < 50 µM
Clc1ccc([B-]2(c3ccc(Cl)cc3)Oc3cccc4ccc[n+]2c34)cc1 [(2), di-(p-chlorophenyl)borinic acid 8-hydroxyquiniline ester]	7 µM	16 µM	–	–	–	–	–	–	–
6-N-(diphenylborinic ester)-ethyl-9-(2-(4-morpholinyl)-ethyl)-adenine [Compound 3b]	–	–	1 to 10 µM	< 25 µM	25 µM	No inhibition at all	Complete inhibition	< 25 µM	–
NCCNc1ncnc2[nH]cnc12 [compound (8)]	–	–	–	–	–	–	–	–	inhibitory activity [4]: relatively low (mM range)
6-N-(diphenylborinic ester)-ethyl-9-(2-(2-(2-hydroxyethoxy)ethoxy)ethyl)-adenine [Compound 3d]	–	–	10 to 50 µM	25 to 100 µM	< 25 µM	No inhibition at all	Complete inhibition	< 25 µM	–
6-N-(diphenylborinic ester)-ethyl-9-(ethyl-2-acrylate)-methyl-adenine [Compound 3e]	–	–	–	25 µM	< 25 µM	No inhibition at all	Complete inhibition	< 25 µM	–
